The text below walks through data of US20250275938A1, “COMPOSITIONS AND METHODS FOR TREATMENT OF CANCER” (SCIROSBIO (FZC), priority 2022, published 2025).

Data set [1] deals with HEK293T (Human Embryonic Kidney) cells. As to the kind of experiment: Trypan blue exclusion cytotoxicity on normal cell line. The data set is classed as cell-based. The following applies: treated at IC50 values determined in U87MG and C6, 24 hours. The protocol: Cytotoxicity on a normal cell line.
Furthermore, to check for the cytotoxicity of the drugs, a trypan blue dye exclusion assay was performed on a normal cell line, HEK293T, using the IC50 values of each drug, individually and in combination, as determined in U87MG and C6 cells and shown in Table 2.

Data set [2] concerns C6 glioma cells. As to the kind of experiment: AO/EtBr dual staining for apoptosis, C6. The data set is classed as cell-based, rat. The note with it: respective IC50 concentrations. The source says: AO/EtBr are fluorescent nuclear stains, which distinguish between live and dead cells based on their membrane integrity. AO intercalates in the DNA of live cells imparting green shade to the nucleus as an indica-tor of viability. In the case of the dead cell, EtBr intercalates along with AO, resulting in an orange appearance, with an increased orange appearance corresponding to a concomitant increase in the number of dead cells and vice versa.
After the treatment period, monolayer cells were stained with AO/EtBr stain (1 mg/ml) and were visualized immediately under a fluorescence microscope (Axiovert, Carl Zeiss) at 20× magnification.

Data set [3] deals with intracellular ROS in C6 cells. Nature of the data set: ROS activity by DCF-DA, C6. It is filed as cell-based, rat. The following applies: IC50 concentrations, vs control. The protocol: Determination of ROS activity by DCF-DA. U87MG and C6 cells were seeded at 5×10^3 cells/well in 96 well plates. […] After the treatment period, monolayer cells were stained with DCF-DA stain, and the absorbance was read at 530 nm spectrophotometrically (Molecular Devices Spectra-Max M5, USA). This method is commonly used in ROS investigations and is based on the application of H2DCFDA (acetylated form of DCF), which is consecutively deacetylated inside the cells by intracellular esterase.

Data set [4] concerns SOD, CAT, GPx, GSH in C6 glioma cells. Nature of the data set: Antioxidant marker kits (SOD, CAT, GPx, GSH), C6. The data set is classed as cell-based, rat. The following applies: vs control. As to the method: Antioxidant markers. […] All experiments were carried out according to the manufacturer's instructions. Three independent biological replicates were performed for each condition.

The subject of another data set is U87MG glioma cells. Nature of the data set: Quantitative RT-PCR gene expression, U87MG. The data set is classed as cell-based, human. As to the method: (§1) Quantitative RT-PCR analysis of antioxidant enzymes (SOD and CAT), oxidative stress marker (Nrf-2), and apoptosis markers (BCL2 and Caspase-9). Total RNA from all experimental groups was isolated using RNA Express reagent (HiMedia, India) and the respective cDNAs were synthesized using a Hi-c-DNA Synthesis Kit (HiMedia, India). Quantitative RT-PCR was carried out using a CFX 96 thermocycler (Bio-Rad, Hercules, CA) and TB Green Premix Ex Taq 1 (Takara Bio, Otsu, Japan) to detect mRNA. Independent experiments were conducted in triplicate. The cycle threshold (Ct), representing a positive PCR result, is defined as the cycle number at which a sample's fluorescence intensity crossed the threshold automatically determined by the CFX 96.
(§2) The relative changes in gene expression were calculated with the 2^−ΔΔCt method, wherein ΔΔCt=(Cttarget gene−Ctβ-actin) sample−([…]) calibrator.
(§3) The qPCR analyses were performed to measure the expression levels of genes associated with anti-Warburg effect. The total RNA was extracted from the cell lysates and brain tissues of all the experimental groups using TRIZOL reagent (Takara Bio, Shiga, Japan). Quantitative RT-PCR was carried out using a CFX96 Real Time PCR Detection System (Bio-Rad, California, USA) and TB Green Premix Ex Taq I (Takara Bio, Shiga, Japan) to detect messenger ribonucleic acid (mRNA).
(§4) Independent experiments were conducted in triplicate. The relative changes in gene expression were calculated with the 2^−ΔΔCt method, where ΔΔCt=Sample (Cttarget gene−Ctβ-actin)−Calibrator (Cttarget gene−Ctβ-actin).

In data set [5] the test system is C6 glioma cells. As to the kind of experiment: Quantitative RT-PCR gene expression, C6. The data set is classed as cell-based, rat. As to the method:
as §1, §2, §3, §4

The test system of the next data set is VEGF. As to the kind of experiment: Immunohistochemistry of tumor sections, VEGF. The data set is classed as in vivo, rat. The following applies: i.p. 7 days; tumor-control 73.58%. As to the method:
Immunohistochemistry. For immunohistochemistry (IHC) analysis, 4 μm thick tissue sections were deparaffinized in xylene and hydrated by immersing in a series of graded ethanol concentration (100%, 95%, 75% and 50%). Endogenous peroxidase activity was blocked by incubating sections in 3% H2O2 solution prepared in methanol at room temperature for 10 minutes and were washed with PBS twice for 5 minutes each. Antigen retrieval was performed by immersing the slides in 300 ml of retrieval buffer (10 mM citrate buffer, pH 6.0) for one hour at 100° C. and were rinsed twice in PBS. Sections were then incubated with approximately 100 μl diluted primary antibodies of Ki67 (1:100 dilution, Elabscience, Wuhan, China) and Vascular Endothelial Growth Factor (VEGF) (1:100 dilution, Elabscience, Wuhan, China) for 30 minutes at room temperature. The slides were then washed twice with PBS and were then incubated with approximately 100 μl of diluted secondary antibody (Cat No. E-IR-R213, Elabscience, Wuhan, China) at room temperature for 30 minutes. Slides were then washed in PBS for 5 minutes, followed by incubation with approximately 100 μl diluted Horse Radish Peroxidase (HRP) conjugate for 30 minutes. […] The staining intensities were quantified using IHC Profiler, a plugin in ImageJ software, to determine the H-score (Histo score).

Data set [6] deals with human breast cancer (MDA-MB-453) cells. As to the kind of experiment: MTT cell viability assay, MDA-MB-453. The note with it: 24 hours. It is filed as cell-based. As to the method: Cell lines and culture conditions: A human breast cancer cell line MDA-MB-453 and human bone cancer cell line SaoS2 were obtained from National Centre for Cell Science (NCCS), Pune, India. The MDA-MB-453 cells were sub-cultured in Dulbecco's Modified Eagle's Medium (DMEM) supplemented with 10% FBS at 5% CO2 and 37° C. The SaoS2 cells were sub-cultured in McCoy's 5A media supplemented with 10% FBS at 5% CO2 and 37° C. […] The cells were allowed to attach 70% to the surface prior to treatment. […] Suspensions were aspirated 10 times before treatment. Cells treated with vehicle control were used as a control. Cell viability assay: MDA-MB-453 and SaoS2 cells (5×10^3 cells/ml) were seeded in 96-well plates and exposed to different individual-drug treated groups with varying concentrations (0, 20, 40, 60, 80, 100, 120, 140, 160, 180 and 200 μM) for a period of 24 hours.

For `O=C(O[C@@H]1Cc2c(O)cc(O)cc2O[C@@H]1c1cc(O)c(O)c(O)c1)c1cc(O)c(O)c(O)c1` [EGCG, [(2R,3R)-5,7-dihydroxy-2-(3,4,5-trihydroxyphenyl)-3,4-dihydro-2H-chromen-3-yl] 3,4,5-trihydroxybenzoate], in data set [1], the “toxicity in normal HEK293T cells” value is “significant reduction in toxicity”. Besides, in the data set on C6 glioma cells [2], the “apoptotic cell death (AO/EtBr)” value is on record as “did not produce any significant apoptotic activity”. Besides, the “apoptotic cell death (AO/EtBr)” value in the data set on C6 glioma cells [2] (listed as E) was “no apoptosis”. In addition, the “intracellular ROS levels (DCF-DA fluorescence intensity)” value in data set [3] is on record as “increased significantly”. Also, the “concentrations of antioxidant markers SOD, CAT, GPx, and GSH” value in data set [4] is “significantly enhanced”. In addition, in the data set on U87MG glioma cells, the “mRNA expression levels of BCL2” value is on record as “not found to be statistically significant”; the “mRNA expression levels of Caspase-9” value is recorded as “not found to be statistically significant”; the “mRNA transcript levels of Nrf-2” value is “did not have any significant effect”; the “mRNA transcripts of the antioxidant genes (SOD and CAT)” value was “significant up-regulation”. In addition, in the data set with C6 glioma cells [5], the “mRNA expression levels of BCL2” value was “not found to be statistically significant”; the “mRNA expression levels of Caspase-9” value is “not found to be statistically significant”; the “mRNA transcript levels of Nrf-2” value is recorded as “did not have any significant effect”; the “mRNA transcripts of the antioxidant genes (SOD and CAT)” value is “significant up-regulation”. The “cytoplasmic positivity for VEGF (H-score)” value with VEGF was 44.45%. In data set [6], the “cell viability (MTT), in words” value is “reduction in cell viability in a dose-dependent fashion”.
`CN(C)C(=N)N=C(N)N.Cl` [MET, 3-(diaminomethylidene)-1,1-dimethylguanidine; hydrochloride]: the “apoptotic cell death (AO/EtBr)” value in the data set with C6 glioma cells [2] (hydrochloride) was “did not produce any significant apoptotic activity”. Also, the “apoptotic cell death (AO/EtBr)” value with C6 glioma cells [2] (listed as M, hydrochloride) was “no apoptosis but loss of cell membrane integrity”. Further, the “intracellular ROS levels (DCF-DA fluorescence intensity)” value in data set [3] is recorded as “did not show much effect on ROS levels”. In the data set with U87MG glioma cells, the “mRNA expression levels of BCL2” value is listed as “not found to be statistically significant”, the “mRNA expression levels of Caspase-9” value is “not found to be statistically significant” and the “mRNA transcript levels of Nrf-2” value is given as “did not have any significant effect”. For the same compound, in the data set on C6 glioma cells [5], the “mRNA expression levels of BCL2” value is recorded as “not found to be statistically significant”, the “mRNA expression levels of Caspase-9” value was “not found to be statistically significant” and the “mRNA transcript levels of Nrf-2” value is “did not have any significant effect”. Besides, in data set [6], the “cell viability (MTT), in words” value is “reduction in cell viability in a dose-dependent fashion”.
